From US20260207626A1, “SYNTHETIC TRITERPENOIDS AND COMPOSITIONS THEREOF IN WEIGHT MANAGEMENT, SKELETAL MUSCLE FUNCTION, AND APPETITE SUPPRESSION” (The Board of Regents of the University of Texas System, priority 2022, published 2026)
Entries after “also recorded” stand apart in the source; their conditions may differ.

Legend:
p38 = experiment: Western blot of p38 phosphorylation in L6-GLUT4myc myotubes; type: cell-based, rat; details: CDDO-EA treated myotubes vs control
Description: FIG. 16B. The protein p38 has been reported to be involved in insulin-independent glucose metabolism. FIG. 16B represents results from a study performed to illustrate that CDDO-EA activated phosphorylation of p38. Immunoblotting was performed to measure the protein content of phosphorylated p38 and total p38 protein. Protein content of actin is used as a control to confirm protein loading is the same across the lanes of the immunoblot. […] The first row of horizontal bands is the Control group (bands #1, #2, and #3) content of phosphorylated p38 (P-p38) with no CDDO-EA treatment.
(§1) Western blotting and subcellular fractionation: L6-GLUT4myc myoblasts (4×10^4 cells/ml, 2 ml/well) were seeded onto 6-well dishes and differentiated with differentiation medium for 7 days. […] Protein concentrations were determined using the Pierce BCA Protein Assay (Thermo Fisher Scientific), and equal amounts of protein were separated by electrophoresis and subsequently transferred to nitrocellulose membranes. Membranes were analyzed using the following antibodies from Cell Signaling Technology: phosphorylated NF-κB (Ser536) (93 H1, cat #3033,1:1000), phosphorylated IKB-α (Ser32) (14D4, cat #2859,1:1000), IKB-α (44D4, cat #4812, 1:1000), phosphorylated p38 (Thr180/Tyr182) (cat #9211, 1:1000), p38 (cat #9212, 1:1000). […] Bands were quantitated using ImageQuant (GE Healthcare). […]

MCP-1 [1] = experiment: LPS-induced MCP-1 ELISA in RAW264.7 macrophages (CDDO-EA batches); type: cell-based, mouse; details: RAW264.7, 500 nM 1 hour then 100 ng/ml LPS 6 hr
Description: Macrophages were pre-treated with 500 nM CDDO-EA #1 or 500 nM CDDO-EA #2, for 1 hour. The microphages were then stimulated with 100 ng/ml of lipopolysaccharide (LPS) for 6 hr. Supernatants were collected from each culture. An enzyme linked immunoassay (ELISA) was performed to detect levels of the pro-inflammatory protein, monocyte chemotactic protein-1 (MCP-1). The macrophages were also treated with LPS alone or with CDDO-EA alone. A control (no treatment) group was also included in the study.
The second batch of CDDO-EA was tested for its biological property of anti-inflammatory activity. As with the first batch of CDDO-EA, this was tested by using the mouse macrophage cell line RAW264.7. RAW264.7 macrophages were pre-treated with 500 nM CDDO-EA for 1 hour then stimulated with 100 ng/ml of lipopolysaccharide (LPS) for 6 hr. Supernatants were collected, and an enzyme linked immunoassay (ELISA) was performed to detect the pro-inflammatory protein, monocyte chemotactic protein-1 (MCP-1). The macrophages were also treated with LPS alone or with CDDO-EA alone. A control (no treatment) group was also included in the study. […] This suppression of MCP-1 production by the second batch CDDO-EA is similar to that observed for the first batch of CDDO-EA. (See FIG. 21).

L6-GLUT4myc myotubes = experiment: Sulforhodamine B (SRB) cell viability assay; type: cell-based, rat; details: 500 nM CDDO-EA, 24 hours
Description: Sulforhodamine B (SRB) cell viability assay: L6-GLUT4myc myoblasts (4000 cells/well) were seeded on a 96-well plate and differentiated into myotubes with differentiation medium for 7 days. Myotubes were then treated with doubling concentrations of CDDO-EA for 6 or 24 h. After treatment, myotubes were fixed in 10% cold trichloroacetic acid (TCA) (Sigma Aldrich), for 1 h in 4° C., followed by three washings with water. The plate was then dried, and the cells were dyed with 100 μL/well of 0.057% SRB (Sigma Aldrich) in 1% acetic acid for 30 min in room temperature. The plate was washed with 1% acetic acid five times, dried, and 200 μL/well of 10 mM unbuffered tris-base solution were added to dissolve the bound SRB. The plate was shaken for 1 h and then read on SpectraMax at 560 nm. Results were normalized to values for non-treated cells.

IκB-α (Ser32) = experiment: Western blot of LPS-induced IκB-α phosphorylation in L6-GLUT4myc myotubes; type: cell-based, rat; details: 500 nM CDDO-EA 1 hr then 100 ng/ml LPS 1 hr
From the text: To examine the anti-inflammatory properties of CDDO-EA in skeletal muscle cells, CDDO-EA was examined for its effect on nuclear factor-kappa B (NF-κB) activity in L6-GLUT4myc muscle cells, in the context of LPS-mediated inflammatory responses in L6-GLUT4myc muscle cells. All experiments were independently repeated one to four times and done in duplicate or triplicate, and data were statistically analyzed by One-Way ANOVA or unpaired t-test, two tailed.
Cells were studied with vehicle alone [0.125% dimethyl sulfoxide (DMSO)] and LPS with and without CDDO-EA. […]
as §1

MCP-1 [2] = experiment: RT-PCR of PA-induced MCP-1 gene expression in L6-GLUT4myc myotubes; type: cell-based, rat; details: CDDO-EA 500 nM 1 h then PA 400 μM 6 h
Description: L6-GLUT4myc myotubes were pretreated with CDDO-EA (500 nM, 1 h) and treated PA (400 μM, 6 h). TNF-α and MCP-1 gene expression were measured by RT-PCR. Data are represented as +SEM *P<0.05 vs. control, ^#P<0.05 vs. control. * P<0.05 vs. LPS, $P<0.05 vs. PA. (One-Way ANOVA).

CCNC(=O)[C@]12CCC(C)(C)C[C@H]1C1C(=O)C=C3[C@@]4(C)C=C(C#N)C(=O)C(C)(C)[C@@H]4CC[C@@]3(C)[C@]1(C)CC2 (stereo partly drawn) [CDDO-EA, (4aS,6aR,6bS,8aR,12aS,14bS)-11-cyano-N-ethyl-2,2,6a,6b,9,9,12a-heptamethyl-10,14-dioxo-1,3,4,5,6,6a,6b, 7,8,8a,9,10,12a, 14,14a, 14b-hexadecahydropicene-4a (2H)-carboxamide]
p38 phosphorylation (normalized to total p38, percent over control) (p38): effective for inducing p38 phosphorylation; also recorded: two-fold increase in activation of p38 phosphorylation; also recorded: activates GLUT4 translocation to cell membrane and p38 phosphorylation
total p38 protein expression (p38): had no effect on p38 protein expression
LPS-induced production of MCP-1 (MCP-1 [1]): significantly suppresses the LPS-induced production
cell viability (L6-GLUT4myc myotubes): 62%
LPS-induced IκB-α phosphorylation (IκB-α (Ser32)): decreased LPS-induced NF-κB and nuclear factor of kappa light polypeptide gene enhancer in B-cells inhibitor-alpha (IκB) phosphorylation; also recorded: inhibited the LPS-induced phosphorylation of IκB-α; also recorded: inhibits lipopolysaccharide (LPS)-induced NF-κB and Inhibitory kappa B alpha (IκB-α) phosphorylation
PA-induced MCP-1 gene expression (MCP-1 [2]): inhibits PA-induced NF-κB activation and MCP-1 and TNF-α gene expression; also recorded: blocks TNF-α and MCP-1 gene expression
